The target of experiment [1] is T1, HsATC (Homo sapiens, UniProt P27708).
T1 construct: ATCase domain of CAD; made in house; host or cells: E. coli BL21 star
T1 sequence (P27708 1918-2225 limits assumed): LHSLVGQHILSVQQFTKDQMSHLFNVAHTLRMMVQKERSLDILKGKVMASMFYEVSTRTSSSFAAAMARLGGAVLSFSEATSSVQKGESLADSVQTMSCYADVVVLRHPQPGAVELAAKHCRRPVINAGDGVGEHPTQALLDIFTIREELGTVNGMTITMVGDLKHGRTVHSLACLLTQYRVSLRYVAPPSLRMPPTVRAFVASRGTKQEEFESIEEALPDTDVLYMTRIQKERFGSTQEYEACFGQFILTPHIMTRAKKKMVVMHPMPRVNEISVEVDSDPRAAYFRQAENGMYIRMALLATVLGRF
Put plainly: HsATC activity assay. The settings on record: in vitro activity assay, 10 mM L-aspartate, 5 mM carbamoyl phosphate; read-out: HsATC IC50. The format is biochemical. The protocol:
417100μL of stop mix (two volumes of Antipyrine (26.5 mM 2,3-Dimethyl-1-phenyl-3-pyrazolin-5-
418one in 50% (v/v) sulfuric acid) and one volume of 2,3-Butanedione monoxime (80 mM 2,3-
419Butanedione monoxime in 5% (v/v) acetic acid). After plates were sealed with transparent sealing
(§1) 420tape to prevent evaporation and incubated overnight in the dark place at room temperature. After
421incubation, the plates were heated at 95 °C for 15 min in dark place, and kept for 30 min before
422measuring at 466 nm suing a Synergy H1 Hybrid Reader (BioTek). Analyses were performed using
423Microsoft Excel and Graph Pad Prism.
424HsATC activity assay. The enzymatic assay was performed as described herein above for
425enzymatic assay of PfATC with minor modifications. Briefly, the reaction was carried out at room
426temperature in a total volume of 150 μl of 10 mM L-aspartate and 5 mM carbamoyl phosphate
427saturated substrate solution in 50 mM Tris-Acetate buffer pH 8.3. hsATC was pre-incubated with
428inhibitor and L-Asp for 10 min at room temperature on a shaker. The reaction was initiated by
429adding CP and stopped after 5 min with […] color mix. Then the plate was covered by sealing
(§2) 430tape and kept in dark place at room temperature and then heated to 95 °C for 15min in dark and kept
431the plate in the dark for another 30 min before measuring the absorbance at 466 nm suing a Synergy
432H1 Hybrid Reader (BioTek). […]

In experiment [2] the target is PfATC (Plasmodium falciparum, UniProt A0A5K1K910). Put plainly: biochemical. The settings on record: in vitro activity assay, PfATC 50 nM, 2 mM CP, 1 mM aspartate; read-out: PfATC IC50. As for the experimental part:
Following washing with Lysis buffer
Excess imidazole was removed and the His-tag was cleaved
400Then, the sample was loaded onto a 5 ml HiTrap SP HP column (GE Healthcare, USA) and
410PfATC activity assay. Enzymatic reactions were performed in a total volume of 150 µL in 50 mM
Small-molecule dose-response curves were
The reactions were initiated by adding CP and quenched after 10 min with
After plates were sealed with transparent sealing
as §1
Analyses were performed using
The enzymatic assay was performed as described herein above for
Briefly, the reaction was carried out at room
The reaction was initiated by
Then the plate was covered by sealing
as §2

Here are results for 12 compounds from publication PMC9585585, “Discovery of Small-Molecule Allosteric Inhibitors of PfATC as Antimalarials” (Journal of the American Chemical Society, 2022).

PfATC, sequence (A0A5K1K910 entry or part of it): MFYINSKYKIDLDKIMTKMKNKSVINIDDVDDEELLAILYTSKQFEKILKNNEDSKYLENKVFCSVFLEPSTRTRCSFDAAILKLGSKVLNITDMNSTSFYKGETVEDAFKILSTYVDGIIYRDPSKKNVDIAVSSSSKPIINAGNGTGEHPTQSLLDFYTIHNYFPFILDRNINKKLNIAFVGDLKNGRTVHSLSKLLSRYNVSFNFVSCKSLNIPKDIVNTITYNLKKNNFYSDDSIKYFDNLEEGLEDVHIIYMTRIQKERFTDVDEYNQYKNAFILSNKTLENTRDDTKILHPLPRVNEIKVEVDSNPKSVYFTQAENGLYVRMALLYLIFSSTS

As to `Cc1ccc(CCNC(=O)c2cc(-c3ccccc3)sc2NC(=O)OC(C)(C)C)cc1` [BDA-23], the concentration for half-maximal inhibition (IC50) in experiment [1] came to 0.756 µM; in experiment [2] it was 0.409 µM.

`COC(=O)c1c(N)sc2c1CCC(c1ccccc1)C2` (stereo not drawn) [BDA-66]: the results for the IC50 in experiment [1] and in experiment [2] were 0.764 µM and 1.29 µM, respectively.

Regarding `CC(C)(C)OC(=O)Nc1sc(-c2ccccc2)cc1C(=O)NCCC1=CCCCC1` [BDA-20], the IC50 in experiment [1] was 2 µM; in experiment [2], 6.31 µM.

For `COc1ccc(CCNC(=O)c2cc(-c3ccccc3)sc2NC(=O)OC(C)(C)C)cc1` [BDA-29], the 50% inhibitory concentration (IC50) in experiment [1] is 0.585 µM; in experiment [2], 1.62 µM.

In the case of `Nc1sc(-c2ccccc2)cc1C(=O)NCCc1ccc(F)cc1` [BDA-46], the IC50 in experiment [1] was 0.741 µM; in experiment [2] it was 1.64 µM.

For the compound `CC(C)(C)OC(=O)Nc1sc(-c2ccc3c(c2)OCO3)cc1C(=O)NCCc1ccc(O)cc1` [BDA-41], the figures for the half-maximal inhibitory concentration (IC50) in experiment [1] and in experiment [2] were 0.0289 µM and 0.673 µM, respectively.

For `CC(C)(C)OC(=O)Nc1sc(-c2cccc(C=O)c2)cc1C(=O)NCCc1ccc(O)cc1` [BDA-48], the values for the IC50 in experiment [1] and in experiment [2] were 0.125 µM and 1.67 µM, respectively.

Take `Nc1sc(-c2ccccc2)cc1C(=O)NCCc1ccc(O)cc1` [BDA-50]: the IC50 in experiment [1] was found to be 0.36 µM; in experiment [2] it was 1.14 µM.

On to `CC(C)(C)OC(=O)Nc1sc(-c2ccc(C=O)cc2)cc1C(=O)NCCc1ccc(O)cc1` [BDA-45], for which the results for the IC50 in experiment [1] and in experiment [2] were 0.124 µM and 3.77 µM, respectively.

Consider `CC(C)(C)OC(=O)Nc1sc(-c2ccccc2)cc1C(=O)Nc1ccc(N2CCOCC2)c(F)c1` [BDA-37], for which the half-maximal inhibitory concentration (IC50) came to 0.349 µM in experiment [1] and 1.08 µM in experiment [2].

For `CC(C)(C)OC(=O)Nc1sc(-c2cccc(N3CCOCC3)c2)cc1C(=O)NCCc1ccc(O)cc1` [BDA-47], the results for the IC50 in experiment [1] and in experiment [2] were 0.238 µM and 1.53 µM, respectively.

Take `CC(C)(C)OC(=O)Nc1sc2c(c1C(=O)NCCc1ccc(O)cc1)CCC(c1ccccc1)C2` (stereo not drawn) [BDA-42]: the half-maximal inhibitory concentration (IC50) in experiment [1] amounted to 2.42 µM; in experiment [2], 12.2 µM.
